pIC50, pKd: −log10 of the molar value.
What was measured:
[1] = biological target: Protein cereblon/Histone acetyltransferase p300 (Homo sapiens, UniProt Q09472+Q96SW2); experiment: PROTAC activity at p300/CRBN in human U2OS cells assessed as induction of p300 degradation incubated for 24 hrs by Nan-glo HiBiT lytic assay; format: cell-based
[2] = biological target: Protein cereblon/CREB-binding protein (Homo sapiens, UniProt Q92793+Q96SW2); experiment: PROTAC activity at CBP/CRBN in human U2OS cells assessed as induction of CBP degradation incubated for 24 hrs by Nan-glo HiBiT lytic assay; format: cell-based
[3] = Drug concentration in rat plasma at 3 mg/kg, po measured at 30 mins by LC-MS/MS analysis; format: ADME, organism-based
[4] = Drug concentration in rat plasma at 3 mg/kg, po measured at 6 hrs by LC-MS/MS analysis; format: ADME, organism-based
[5] = Drug concentration in rat plasma at 3 mg/kg, po measured at 15 mins by LC-MS/MS analysis; format: ADME, organism-based
[6] = Metabolic stability in rat liver microsome assessed as half life measured upto 60 mins in presence of NADPH by LC-MS/MS analysis; format: ADME; settings: liver microsomes
[7] = Drug concentration in rat plasma at 3 mg/kg, po measured at 5 mins by LC-MS/MS analysis; format: ADME, organism-based
[8] = AUC (0 to t) in Sprague-Dawley rat at 1 mg/kg, iv measured upto 24 hrs by LC-MS/MS analysis; format: ADME, organism-based; settings: in vivo
[9] = Half life in Sprague-Dawley rat at 1 mg/kg, iv measured upto 24 hrs by LC-MS/MS analysis; format: ADME, organism-based; settings: in vivo
[10] = Drug concentration in rat plasma at 3 mg/kg, po measured at 4 hrs by LC-MS/MS analysis; format: ADME, organism-based
[11] = Metabolic stability in human liver microsome assessed as half life measured upto 60 mins in presence of NADPH by LC-MS/MS analysis; format: ADME; settings: liver microsomes
[12] = Volume of distribution at steady state in Sprague-Dawley rat at 1 mg/kg, iv measured upto 24 hrs by LC-MS/MS analysis; format: ADME, organism-based; settings: in vivo
[13] = Metabolic stability in mouse liver microsome assessed as half life measured upto 60 mins in presence of NADPH by LC-MS/MS analysis; format: ADME; settings: liver microsomes
[14] = Drug concentration in rat plasma at 3 mg/kg, po measured at 2 hrs by LC-MS/MS analysis; format: ADME, organism-based
[15] = Drug concentration in rat plasma at 3 mg/kg, po measured at 1 hr by LC-MS/MS analysis; format: ADME, organism-based
[16] = tested on: VCaP; experiment: Antiproliferative activity against human VCaP cells assessed as cell growth inhibition incubated for 4 days by celtiter-glo luminescent assay; settings: 96 h
[17] = tested on: CWR22R; experiment: Antiproliferative activity against human 22Rv1 cells assessed as cell growth inhibition incubated for 4 days by celtiter-glo luminescent assay; settings: 22Rv1, 96 h
[18] = Drug concentration in rat plasma at 3 mg/kg, po measured at 24 hrs by LC-MS/MS analysis; format: ADME, organism-based
[19] = biological target: Bromodomain-containing protein 4 (Homo sapiens, UniProt O60885); experiment: Binding affinity to BRD4 (unknown origin) assessed as dissociation constant by ITC analysis
[20] = biological target: Histone acetyltransferase p300 (Homo sapiens, UniProt Q09472); experiment: Binding affinity to p300 (unknown origin) assessed as dissociation constant by ITC analysis
[21] = biological target: CREB-binding protein (Homo sapiens, UniProt Q92793); experiment: Binding affinity to CBP (unknown origin) assessed as dissociation constant by ITC analysis
[22] = tested on: LNCaP; experiment: Antiproliferative activity against human LNCaP cells assessed as cell growth inhibition incubated for 4 days by celtiter-glo luminescent assay; settings: 96 h

Sequence of Protein cereblon/Histone acetyltransferase p300 (Q09472 whole entry): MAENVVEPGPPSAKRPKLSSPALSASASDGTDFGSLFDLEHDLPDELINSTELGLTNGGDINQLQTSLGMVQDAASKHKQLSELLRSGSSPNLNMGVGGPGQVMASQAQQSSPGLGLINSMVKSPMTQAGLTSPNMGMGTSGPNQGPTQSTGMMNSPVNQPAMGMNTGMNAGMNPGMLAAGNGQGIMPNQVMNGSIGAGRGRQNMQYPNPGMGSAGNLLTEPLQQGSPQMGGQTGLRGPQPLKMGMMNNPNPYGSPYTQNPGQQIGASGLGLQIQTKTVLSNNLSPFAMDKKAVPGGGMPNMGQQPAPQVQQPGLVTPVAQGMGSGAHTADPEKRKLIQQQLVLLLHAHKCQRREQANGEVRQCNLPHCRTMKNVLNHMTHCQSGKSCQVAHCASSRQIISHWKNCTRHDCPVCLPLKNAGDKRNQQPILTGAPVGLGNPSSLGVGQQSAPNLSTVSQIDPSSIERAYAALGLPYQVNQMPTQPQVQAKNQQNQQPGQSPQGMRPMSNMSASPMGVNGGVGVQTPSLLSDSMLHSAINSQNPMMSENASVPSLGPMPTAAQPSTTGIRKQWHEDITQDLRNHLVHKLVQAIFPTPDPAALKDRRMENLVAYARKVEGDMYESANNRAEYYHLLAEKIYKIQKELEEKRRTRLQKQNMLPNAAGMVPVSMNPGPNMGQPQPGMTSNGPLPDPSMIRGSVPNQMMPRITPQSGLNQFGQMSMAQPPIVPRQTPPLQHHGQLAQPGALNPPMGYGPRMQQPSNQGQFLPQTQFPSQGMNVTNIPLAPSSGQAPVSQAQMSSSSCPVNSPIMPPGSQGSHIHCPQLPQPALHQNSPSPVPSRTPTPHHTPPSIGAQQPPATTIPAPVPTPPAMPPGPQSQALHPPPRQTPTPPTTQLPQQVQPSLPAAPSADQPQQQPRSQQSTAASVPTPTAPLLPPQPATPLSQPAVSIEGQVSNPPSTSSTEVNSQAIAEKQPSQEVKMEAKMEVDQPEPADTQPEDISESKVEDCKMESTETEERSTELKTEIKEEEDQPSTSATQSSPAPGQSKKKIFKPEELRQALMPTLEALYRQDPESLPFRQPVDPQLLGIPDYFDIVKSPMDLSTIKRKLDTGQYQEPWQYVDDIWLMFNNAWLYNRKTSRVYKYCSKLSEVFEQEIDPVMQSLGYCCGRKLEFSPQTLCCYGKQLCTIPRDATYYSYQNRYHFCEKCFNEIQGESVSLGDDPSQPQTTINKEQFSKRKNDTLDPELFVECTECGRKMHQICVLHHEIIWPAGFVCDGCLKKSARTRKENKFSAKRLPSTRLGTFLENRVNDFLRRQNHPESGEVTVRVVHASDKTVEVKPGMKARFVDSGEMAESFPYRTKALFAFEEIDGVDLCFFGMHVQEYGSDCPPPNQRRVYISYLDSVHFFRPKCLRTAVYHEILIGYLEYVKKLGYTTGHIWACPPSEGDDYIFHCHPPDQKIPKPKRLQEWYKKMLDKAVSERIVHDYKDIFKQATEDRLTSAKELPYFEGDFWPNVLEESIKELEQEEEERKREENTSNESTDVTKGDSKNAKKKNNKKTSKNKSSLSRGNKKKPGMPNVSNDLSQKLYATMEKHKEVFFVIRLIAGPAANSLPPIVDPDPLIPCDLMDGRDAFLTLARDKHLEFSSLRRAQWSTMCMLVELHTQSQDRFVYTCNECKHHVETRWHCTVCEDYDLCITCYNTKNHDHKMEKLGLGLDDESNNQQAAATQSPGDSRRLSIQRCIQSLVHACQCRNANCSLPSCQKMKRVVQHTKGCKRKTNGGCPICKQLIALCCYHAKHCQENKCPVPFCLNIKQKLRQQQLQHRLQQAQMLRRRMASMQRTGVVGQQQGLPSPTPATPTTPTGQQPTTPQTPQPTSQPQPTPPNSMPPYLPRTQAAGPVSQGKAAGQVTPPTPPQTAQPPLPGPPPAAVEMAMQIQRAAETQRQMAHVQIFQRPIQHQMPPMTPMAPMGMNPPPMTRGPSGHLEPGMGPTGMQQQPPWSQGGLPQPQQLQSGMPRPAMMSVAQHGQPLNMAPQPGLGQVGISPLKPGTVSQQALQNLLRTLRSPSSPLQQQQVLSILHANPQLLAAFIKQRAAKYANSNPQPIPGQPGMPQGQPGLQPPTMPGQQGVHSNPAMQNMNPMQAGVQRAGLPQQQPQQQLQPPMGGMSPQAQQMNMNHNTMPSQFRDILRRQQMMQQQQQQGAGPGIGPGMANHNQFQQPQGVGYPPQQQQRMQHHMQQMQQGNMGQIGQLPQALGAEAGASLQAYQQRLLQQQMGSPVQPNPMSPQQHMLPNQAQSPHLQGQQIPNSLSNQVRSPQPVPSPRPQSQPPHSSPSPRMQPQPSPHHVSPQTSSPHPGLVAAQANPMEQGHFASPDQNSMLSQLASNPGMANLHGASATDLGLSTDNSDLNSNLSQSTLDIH
Sequence of Protein cereblon/Histone acetyltransferase p300 (Q96SW2 whole entry): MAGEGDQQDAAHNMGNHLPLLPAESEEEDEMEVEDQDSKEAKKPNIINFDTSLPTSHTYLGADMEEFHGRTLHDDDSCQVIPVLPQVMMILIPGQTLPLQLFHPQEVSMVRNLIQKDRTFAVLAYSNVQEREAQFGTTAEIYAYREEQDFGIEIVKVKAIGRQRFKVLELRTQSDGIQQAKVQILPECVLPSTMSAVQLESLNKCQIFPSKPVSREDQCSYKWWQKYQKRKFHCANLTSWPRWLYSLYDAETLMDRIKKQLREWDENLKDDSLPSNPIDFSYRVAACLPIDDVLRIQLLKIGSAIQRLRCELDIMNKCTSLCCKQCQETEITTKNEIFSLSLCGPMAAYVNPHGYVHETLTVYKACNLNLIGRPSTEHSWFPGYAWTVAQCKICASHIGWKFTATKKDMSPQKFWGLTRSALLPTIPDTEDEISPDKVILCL
Sequence of Histone acetyltransferase p300 (Q09472 whole entry): as the sequence (Q09472 whole entry) above

CC(=O)N1CCc2c(c(N3CCCc4cc(Br)c(C(F)F)cc43)nn2C2CCN(C(=O)CN3Cc4cc5c(cc4C3)C(=O)N(C3CCC(=O)NC3=O)C5=O)CC2)C1 (configuration not stated)
DC50 [1]: 17 nM | DC50 [2]: 64 nM

CC(=O)N1CCc2c(c(N3CCCc4cc(C5CC5)c(C(F)F)cc43)nn2C2CCN(C(=O)CN3Cc4cc5c(cc4C3)C(=O)N(C3CCC(=O)NC3=O)C5=O)CC2)C1 (configuration not stated)
DC50 [1]: 29 nM | DC50 [2]: 52 nM

CCc1cc2c(cc1C(F)F)N(c1nn(C3CCN(C(=O)CN4Cc5cc6c(cc5C4)C(=O)N(C4CCC(=O)NC4=O)C6=O)CC3)c3c1CN(C(C)=O)CC3)CCC2 (configuration not stated)
DC50 [1]: 18 nM | DC50 [2]: 89 nM

CC(=O)N1CCc2c(c(N3CCCc4cc(-c5cnn(C)c5)c(C(F)F)cc43)nn2C2CCN(C(=O)CCCCCN3Cc4cc5c(cc4C3)C(=O)N(C3CCC(=O)NC3=O)C5=O)CC2)C1 (configuration not stated)
DC50 [1]: 108 nM | DC50 [2]: 362 nM

CC(=O)N1CCc2c(c(N3CCCc4ccc(C(F)F)cc43)nn2C2CCN(C(=O)CN3Cc4cc5c(cc4C3)C(=O)N(C3CCC(=O)NC3=O)C5=O)CC2)C1 (configuration not stated)
concentration at 0.5 h [3]: 0.4 ng/mL | concentration at 6 h [4]: 0.9 ng/mL | concentration at 0.25 h [5]: 0.5 ng/mL | half-life [6]: > 1 h | concentration at 5 min [7]: 1 ng/mL | AUC(0-t) at 24 h [8]: 88.7 ng·h/mL | t1/2 [9]: 1.1 h | concentration at 4 h [10]: 0.7 ng/mL | half-life [11]: > 1 h | DC50 [1]: 204 nM | Vdss [12]: 1.7 L/kg | half-life [13]: > 1 h | concentration at 2 h [14]: 0.4 ng/mL | DC50 [2]: 519 nM | concentration at 1 h [15]: 0.3 ng/mL

CNC(=O)c1ccc(N2C(=S)N(c3ccc(C#N)c(C(F)(F)F)c3)C(=O)C2(C)C)cc1F [ENZALUTAMIDE]
pIC50 [16]: < 6.00 | pIC50 [17]: < 6.00

CC(=O)N1CCc2c(c(N3CCCc4cc(C5CCCCC5)c(C(F)F)cc43)nn2C2CCN(C(=O)CN3Cc4cc5c(cc4C3)C(=O)N(C3CCC(=O)NC3=O)C5=O)CC2)C1 (configuration not stated)
DC50 [1]: 39 nM | DC50 [2]: 37 nM

CC(=O)N1CCc2c(c(N3CCCc4cc(-c5cnn(C)c5)c(C(F)F)cc43)nn2C2CCN(C(=O)CN3Cc4cc5c(cc4C3)C(=O)N(C3CCC(=O)NC3=O)C5=O)CC2)C1 (configuration not stated)
concentration at 0.25 h [5]: 1.9 ng/mL | half-life [6]: > 1 h | concentration at 5 min [7]: 3.7 ng/mL | concentration at 24 h [18]: 4.6 ng/mL | AUC(0-t) at 24 h [8]: 166 ng·h/mL | t1/2 [9]: 1.3 h | half-life [11]: 0.163 h | Vdss [12]: 6.3 L/kg | half-life [13]: 0.317 h

CNC(=O)N1CCc2c(c(N3CCCc4cc(-c5cnn(C)c5)c(C(F)F)cc43)nn2C2CCOCC2)C1
pKd [19]: 8.34 | pKd [20]: 8.92 | pKd [21]: 9.05

CC(=O)N1CCc2c(c(N3CCCc4cc(-c5cccs5)c(C(F)F)cc43)nn2C2CCN(C(=O)CN3Cc4cc5c(cc4C3)C(=O)N(C3CCC(=O)NC3=O)C5=O)CC2)C1 (configuration not stated)
DC50 [1]: 33 nM | DC50 [2]: 24 nM

CC(=O)N1CCc2c(c(N3CCCc4cc(C)c(C(F)F)cc43)nn2C2CCN(C(=O)CN3Cc4cc5c(cc4C3)C(=O)N(C3CCC(=O)NC3=O)C5=O)CC2)C1 (configuration not stated)
DC50 [1]: 9.6 nM | DC50 [2]: 55 nM

CC(=O)N1CCc2c(c(N3CCCc4cc(-c5cnn(C)c5)c(C(F)F)cc43)nn2C2CCN(C(=O)CCCN3Cc4cc5c(cc4C3)C(=O)N(C3CCC(=O)NC3=O)C5=O)CC2)C1 (configuration not stated)
DC50 [1]: 105 nM | DC50 [2]: 368 nM

CC(=O)N1CCc2c(c(N3CCCc4cc(C(C)C)c(C(F)F)cc43)nn2C2CCN(C(=O)CN3Cc4cc5c(cc4C3)C(=O)N(C3CCC(=O)NC3=O)C5=O)CC2)C1 (configuration not stated)
DC50 [1]: 40 nM | DC50 [2]: 57 nM

CC(=O)N1CCc2c(c(N3CCCc4cc(-c5ccc(F)cc5)c(C(F)F)cc43)nn2C2CCN(C(=O)CN3Cc4cc5c(cc4C3)C(=O)N(C3CCC(=O)NC3=O)C5=O)CC2)C1 (configuration not stated)
DC50 [1]: 41 nM | DC50 [2]: 36 nM

CC(=O)N1CCc2c(c(N3CCCc4cc(-c5cnn(C)c5)c(C(F)F)cc43)nn2C2CCN(C(=O)CCCCN3Cc4cc5c(cc4C3)C(=O)N(C3CCC(=O)NC3=O)C5=O)CC2)C1 (configuration not stated)
DC50 [1]: 46 nM | DC50 [2]: 168 nM

CC(=O)N1CCc2c(c(N3CCCc4cc(-c5cnn(C)c5)c(C(F)F)cc43)nn2C2CCN(CC(=O)N3Cc4cc5c(cc4C3)C(=O)N(C3CCC(=O)NC3=O)C5=O)CC2)C1 (configuration not stated)
DC50 [1]: > 1000 nM | DC50 [2]: > 1000 nM

CC(=O)N1CCc2c(c(N3CCCc4cc(-c5cnn(C)c5)c(C(F)F)cc43)nn2C2CCN(C(=O)CCN3Cc4cc5c(cc4C3)C(=O)N(C3CCC(=O)NC3=O)C5=O)CC2)C1 (configuration not stated)
DC50 [1]: > 1000 nM | DC50 [2]: > 1000 nM

CC(=O)N1CCc2c(c(N3CCCc4cc(-c5cnn(C)c5)c(C(F)F)cc43)nn2C2CCN(C(=O)N3Cc4cc5c(cc4C3)C(=O)N(C3CCC(=O)NC3=O)C5=O)CC2)C1 (configuration not stated)
DC50 [1]: > 1000 nM | DC50 [2]: > 1000 nM

CO[C@H]1CC[C@H](n2c([C@@H]3CCCC(=O)N3c3ccc(F)c(F)c3)nc3cc(-c4c(C)noc4C)ccc32)CC1 [INOBRODIB]
pIC50 [16]: 6.71

CC(=O)N1CCc2c(c(N3CCCc4cc(-c5cnn(C)c5)c(C(F)F)cc43)nn2C2CCOCC2)C1
pKd [19]: 6.70 | pIC50 [16]: < 6.00 | pIC50 [17]: < 6.00 | pKd [20]: 8.89 | pKd [21]: 8.96 | pIC50 [22]: < 6.00

CC(=O)N1CCc2c(c(N3CCCc4cc(-c5ccccc5)c(C(F)F)cc43)nn2C2CCN(C(=O)CN3Cc4cc5c(cc4C3)C(=O)N(C3CCC(=O)NC3=O)C5=O)CC2)C1 (configuration not stated)
DC50 [1]: 23 nM | DC50 [2]: 31 nM

N#Cc1ccc(O[C@H]2CC[C@H](NC(=O)c3ccc(N4CCC(CN5CCN(c6cc7c(cc6F)C(=O)N(C6CCC(=O)NC6=O)C7=O)CC5)CC4)nn3)CC2)cc1Cl (some centres not stated) [BAVDEGALUTAMIDE]
pIC50 [16]: 6.90

Reference: ChEMBL document CHEMBL5543112, “Discovery of CBPD-268 as an Exceptionally Potent and Orally Efficacious CBP/p300 PROTAC Degrader Capable of Achieving Tumor Regression” (J Med Chem, 2024)
